The subject of experiment [1] is α2-adrenergic receptors. The experiment can be described thus: Binding assay of the α2-adrenergic receptors on CHO cell membranes with [3H]RX821002. Set-up: species or system human. The method, then: These membranes (30 μg proteins/ml for CHO-hα2A and CHO-hα2B, 100 μg protein/ml for CHO-hα2C) were incubated for 60 min at ambient temperature in binding buffer (33 mM Tris-HCl, 1 mM EDTA, pH 7.5) in a final volume of 500 μL containing 0.8 or 1 or 2 nM [^3H]RX821002 respectively for the adrenergic receptors hα2A, hα2B and hα2C.
Incubation was halted by rapid vacuum filtration through GF/C glass fibre filters followed by three successive washings in ice-cold binding buffer.
Non-specific binding was determined using 10 μM phentolamine.
The competitive assays were analyzed by non-linear regression using the GraphPad programme.
Ki values were determined using the method described by Cheng and Prussof (Cheng, Y. C.; Prusoff, W. H. Relationship between the Inhibition Constant (Ki) and the Concentration of Inhibitor which causes 50 percent Inhibition (I50) of an Enzymatic Reaction. Biochem. Pharmacol. 1973, 22, 3099-3108).

The test system of experiment [2] is Sprague-Dawley rats. The experiment can be described thus: Acute i.v. treatment: renal sympathetic nerve activity and hemodynamic parameters in anesthetized rats. The class given is in vivo, rat. The settings on record: 10 mg/kg i.v. The method, then: Male Sprague-Dawley rats (10 weeks; Laboratoires Charles River, L'Arbresle, France) were anesthetized with urethane (1.5 g/kg i.p., supplemented with 0.1 g/kg i.v. if necessary) and placed on a hot blanket to maintain rectal temperature at 37° C.
The left renal nerve was carefully isolated and a major branch of the nerve was placed on a bipolar platinum-iridium electrode insulated with silicone gel (604A and B; Wacker Chemie, Munich, Germany). Throughout the experiment the rat was ventilated by means of a tracheal cannula (7-8 ml/kg×72 cycles/min) with a mixture of oxygen and air (˜8%-20%).
Arterial pressure was measured by connecting the arterial catheter to a pressure transducer (TNF-R; Ohmeda, Bilthoven, Holland) coupled to an amplifier (model 13-4615-52; Gould, Cleveland, Ohio).
Renal sympathetic nerve activity (RSNA) was amplified (×50,000), the pass-band filtered (300-3000 Hz; Model P-511J; Grass, Quincy, Mass.) and rectified with a home-built analogue rectifier including a low frequency filter with a cut-off frequency of 150 Hz.
The 2 parameters were continuously recorded using a computer equipped with an analogue-digital converter (model AT-MIO-16; National Instruments, Austin, Tex.) and LabVIEW 5.1 software (National Instruments).
Arterial pressure and RSNA were recorded before (baseline) and after administering compound 1 (10 mg/kg, i.v.). At the end of the recording session, chlorisondamine, a ganglionic blocker, was administered (2.5 mg/kg, i.v.) to evaluate the level of background noise which was then subtracted from all RSNA data for subsequent analyses. At the end of the experiment, the rats were euthanized with an intravenous overdose of sodium pentobarbital.

The subject of experiment [3] is SHHF rats. The experiment can be described thus: Chronic treatment: plasma biochemical parameters in SHHF rats. Conditions: 20 mg/kg/d, 12 weeks. Type of experiment: in vivo, rat. The procedure:
(§1) Male SHHF rats (spontaneously hypertensive, heart failure) aged 12 weeks were used for this study (Charles River breeding centre, L'Arbresle, France).
(§2) Compound 1 was administered in the drinking water for 12 weeks at a dose of 20 mg/kg/d (n=17). Water consumption was regularly measured to adjust the concentration of compound 1. Non-treated control SHHF rats had access to normal water (n=10).
(§3) Body weight, water and food intake were measured every day. After a treatment time of 12 weeks, blood samples were taken. Three days later, arterial pressure and heart rate were recorded and a glucose tolerance test was performed.
After a treatment time of 12 weeks, blood samples were obtained from the caudal vein of anesthetized rats (2.5% isoflurane, Abbott, Rungis, France) after a fasting time of 18 h.
The blood were centrifuged for 15 minutes at 2000 g and the plasma was frozen to −80° C. until assays of glucose, total cholesterol, HDL and LDL cholesterol and fatty acids. These assays were performed at the following centre: Plateau Technique Biologique des Hôpitaux Universitaires de Strasbourg (Advia 2400, Bayer HealthCare).
Insulin, leptin, adiponectin and glucagon were assayed using ELISA kits (insulin: Mercodia, Uppsala, Sweden; leptin: Yanaihara Institute Inc., Shizuoka, Japan; adiponectin: B-Bridge International, Mountain View, USA; glucagon: Gentaur, Kampenhout, Belgium) following the supplier's recommendations.

For experiment [4], the system named is SHHF rats. The experiment can be described thus: Chronic treatment: glucose tolerance test (IVGTT) in SHHF rats. Type of experiment: in vivo, rat. Conditions: 20 mg/kg/d, 12 weeks; glucose 0.5 g/kg i.v.; control 710±37. The method, then:
At the end of treatment, the SHHF rats were anesthetized with sodium pentobarbital (50 mg/kg i.p.) after a fasting time of 18 h. The left femoral vein was catheterized to take blood samples for the different dosages. To perform the glucose tolerance test a solution of glucose (0.5 g/kg, i.v.) was administered and the plasma concentrations of glucose were determined after 3, 6, 10, 15, 30 and 45 minutes.
as §1, §2
A glucose solution of 0.5 g/kg was administered via intravenous route. The plasma concentration of glucose was evaluated using a glucometer before injection into animals that had fasted 18 h, and then 3, 6, 10, 15, 30 and 45 min after administration of the glucose (Accu Check Go, Roche Diagnostics, Meylan, France). Area under curve values (AUC) were then determined to compare the groups.

Experiment [5] concerns SHHF rats. The experiment is described as follows: Chronic treatment: body weight and food consumption in SHHF rats. The settings on record: 20 mg/kg/d. The class given is in vivo, rat. The procedure:
as §1, §2, §3

In general, Ki refers to a dissociation constant, usually derived from enzyme kinetics or from competition with a known ligand. In experiment [1] (CHO cells), `Cc1c(Cl)cccc1NC1=NCC(C)C1.Cl` (stereo not drawn) [Compound 1, (3-Chloro-2-methyl-phenyl)-(4-methyl-4,5-dihydro-3H-pyrrol-2-yl)-amine hydrochloride] had a Ki greater than 10 µM. In addition, the “displacement at the α2-adrenergic receptor” value in experiment [1] (concentration of 10^−5 M) is given as “No significant displacement”. The “duration of the reduction in renal sympathetic activity, arterial pressure and heart rate” value in experiment [2] is given as “more than one hour”. Besides, the “reduction in renal sympathetic activity” value in experiment [2] (urethane-anesthetized rats) is listed as 50%. In addition, the “diastolic arterial pressure (DAP)” value in experiment [2] (vs. 83.2±4 baseline) is 58.6±3.4 mmHg. Besides, in experiment [2] (vs. 108.±3.4 baseline), the “mean arterial pressure (MAP)” value came to 77.4±3.6 mmHg. In addition, the “systolic arterial pressure (SAP)” value in experiment [2] (vs. 141.7±2.3 baseline) came to 105.3±3 mmHg. This compound had a heart rate in experiment [2] (vs. 331.4±14 baseline) of 288.4±10.3 bpm. In addition, in experiment [3], the fasting glycaemia entry is “not affected” and the free fatty acids result is given as “not affected”. The total plasma cholesterol in experiment [3] (fasting 18 h, control 3.8±0.18) came out at 2.7 ± 0.09 mmol/L. In experiment [3] (fasting 18 h, control 4.59±0.23), this compound came in with a plasma triglycerides of 3.8 ± 0.25 mmol/L. The compound further displayed a plasma adiponectin in experiment [3] (control 5.54±0.14) of 10.6 ± 0.52 µg/mL. The compound also gave a fasting plasma insulin in experiment [3] (control 46.8±3.7) of 15.2 ± 2 ng/mL. Moreover, the HOMA-IR index in experiment [3] (control 534±38) is 110±14. For the same compound, the “AUC after the glucose tolerance test” value in experiment [4] turned out to be 556 ± 20 mmol·min/L. Also, in experiment [5] (after 9 weeks until end of treatment), the body weight entry is listed as “lower body weight than the controls”. Also, the food consumption result in experiment [5] (after one week's treatment) is recorded as “below that of the controls”.
